Common to all, as to assay type: functional, organism-based
Experiment [1] has as its system Trypanosoma cruzi. Nature of the experiment: Antitrypanosomal activity against trypomastigote form of Trypanosoma cruzi INC5 at 5 to 250 ug/ml after 24 hr by Neubauer counting method.
The test system of experiment [2] is Trypanosoma cruzi. Nature of the experiment: Antitrypanosomal activity against trypomastigote form of Trypanosoma cruzi NINOA at 5 to 250 ug/ml after 24 hr by Neubauer counting method.
In experiment [3] the test system is Trypanosoma cruzi. Briefly: Antitrypanosomal activity against trypomastigote form of Trypanosoma cruzi NINOA after 24 hr by Neubauer counting method.
Experiment [4] relates to Trypanosoma cruzi. Briefly: Antitrypanosomal activity against trypomastigote form of Trypanosoma cruzi INC5 after 24 hr by Neubauer counting method. To be noted: INC5, 24 h.

Structures are written as SMILES. In brackets after ≈: the same amount, converted by molar mass. Activity calls are given as the source filed them. No cut-off for these calls is given here.

Turning to `O=C(O)/C=C/c1nc2ccccc2o1`, the outcome in the experiment with Trypanosoma cruzi [1] and with Trypanosoma cruzi [2] was Active.
As usually defined, the IC50 is the point on the concentration scale where inhibition reaches its midpoint. A low value points to higher potency. In the case of `Cc1ccc2nc(/C=C/C(=O)O)oc2c1`, the IC50 is 266 µg/mL (≈ 1310 µM) in the experiment with Trypanosoma cruzi [3] and 421 µg/mL (≈ 2070 µM) with Trypanosoma cruzi [4].
`O=C(Cn1ccnc1[N+](=O)[O-])NCc1ccccc1` [BENZNIDAZOLE]: the values for the IC50 in the experiment with Trypanosoma cruzi [3] and in the experiment with Trypanosoma cruzi [4] were 117 µg/mL (≈ 448 µM) and 205 µg/mL (≈ 786 µM), respectively.
